Converted amounts (≈) assume the structure as drawn. Where two headings read alike, the source gives them in different places.
Columns and labels:
[1] = tested on: Staphylococcus aureus ATCC 25923; assay: Antibacterial microdilution broth method; format: cell-based; settings: for MIC: Staphylococcus aureus
Procedure: (§1) The antibacterial and antifungal activities of compounds 4–9 were screened by the microdilution broth method using Mueller–Hinton broth for the growth of bacteria and Mueller–Hinton broth with 2% glucose for the growth of fungi. The antimicrobial assays were carried out following a previous study. The MICs of the aforementioned derivatives were evaluated for the panel of reference microorganisms from the ATCC (American Type Culture Collection), including Gram-positive bacteria (Staphylococcus aureus ATCC 25923, Staphylococcus epidermidis ATCC 12228, Micrococcus luteus ATCC 10240, Bacillus subtilis ATCC 6633, and Bacillus cereus ATCC 10876), Gram-negative bacteria (Escherichia coli ATCC 25922, Proteus mirabilis ATCC 12453, Klebsiella pneumoniae ATCC 13883, and Pseudomonas aeruginosa ATCC 9027), and fungi (Candida albicans ATCC 102231 and Candida parapsilosis ATCC 22019) (LGC Standards, Teddington, Middlesex, UK). Vancomycin (VAN), ciprofloxacin (CIP), and fluconazole (FCZ) were used as standard drugs for comparison. Each experiment was performed in triplicate.

[2] = tested on: Bacillus subtilis ATCC 6633; assay: Antibacterial microdilution broth method; format: cell-based
Procedure: as §1

[3] = tested on: Bacillus cereus ATCC 10876; assay: Antibacterial microdilution broth method; format: cell-based
Procedure: as §1

[4] = tested on: Staphylococcus epidermidis ATCC 12228; assay: Antibacterial microdilution broth method; format: cell-based; settings: for MIC: Staphylococcus epidermidis
Procedure: as §1

[5] = tested on: Micrococcus luteus ATCC 10240; assay: Antibacterial microdilution broth method; format: cell-based
Procedure: as §1

[6] = tested on: Mycobacterium strains; parameters: method as in PMID 32061963, PMID 36013649; settings: cited from earlier work
[7] = tested on: other pathogenic microorganisms; parameters: method as in PMID 32061963, PMID 36013649; settings: cited from earlier work
[8] = tested on: Klebsiella pneumoniae ATCC 13883; assay: Antibacterial microdilution broth method; format: cell-based
Procedure: as §1

[9] = tested on: Escherichia coli ATCC 25922; assay: Antibacterial microdilution broth method; format: cell-based
Procedure: as §1

[10] = tested on: Proteus mirabilis ATCC 12453; assay: Antibacterial microdilution broth method; format: cell-based
Procedure: as §1

[11] = tested on: Pseudomonas aeruginosa ATCC 9027; assay: Antibacterial microdilution broth method; format: cell-based
Procedure: as §1

[12] = tested on: HaCaT cells; assay: Cytotoxic activity, sulforhodamine B method; settings: for IC50: Homo sapiens, 72 h, read-out: IC50-HaCaT SULF; for cytotoxicity against noncancer cells (in words): MTT and sulforhodamine B methods together
[13] = tested on: Candida parapsilosis ATCC 22019; assay: Antifungal microdilution broth method; format: cell-based; settings: Lodderomyces parapsilosis, ATCC22019; Mueller–Hinton broth with 2% glucose; read-out: MIC C. parapsilosis ATCC 22019
Procedure: as §1

[14] = tested on: Candida albicans ATCC 102231; assay: Antifungal microdilution broth method; format: cell-based; settings: ATCC102231, Mueller–Hinton broth with 2% glucose, read-out: MIC C. albicans ATCC 102231
Procedure: as §1

[15] = tested on: HaCaT cells; assay: Cytotoxic activity, MTT method; format: cell-based; settings: Homo sapiens, 72 h, 3 days of incubation
[16] = tested on: M. tuberculosis H37Rv (standard strain); assay: Tuberculostatic activity, twofold serial microdilution with Alamar Blue; format: cell-based, Mycobacterium tuberculosis; settings: 21 days at 37 °C; for MIC: Mycobacterium tuberculosis, H37RV, 504 h
[17] = tested on: Gram-positive bacteria; assay: Antibacterial microdilution broth method, summary in text; format: cell-based; settings: read-out: MIC Gram-positive bacteria
Procedure: as §1

[18] = ATCC25923, Mueller–Hinton broth, read-out: MIC S. aureus ATCC 25923
[19] = ATCC6633, Mueller–Hinton broth, read-out: MIC B. subtilis ATCC 6633
[20] = ATCC10876, Mueller–Hinton broth, read-out: MIC B. cereus ATCC 10876
[21] = ATCC12228, Mueller–Hinton broth, read-out: MIC S. epidermidis ATCC 12228
[22] = ATCC10240, Mueller–Hinton broth, read-out: MIC M. luteus ATCC 10240
[23] = ATCC13883, Mueller–Hinton broth, read-out: MIC K. pneumoniae ATCC 13883
[24] = ATCC25922, Mueller–Hinton broth, read-out: MIC E. coli ATCC 25922
[25] = ATCC12453, Mueller–Hinton broth, read-out: MIC P. mirabilis ATCC 12453
[26] = ATCC9027, Mueller–Hinton broth, read-out: MIC P. aeruginosa ATCC 9027

SMILES	MIC [1, 18] [µg/mL]	MIC [2, 19] [µg/mL]	MIC [3, 20] [µg/mL]	MIC [4, 21] [µg/mL]	MIC [5, 22] [µg/mL]	IC50 [12] [µg/mL]	cytotoxicity against noncancer cells (in words) [12]	MIC [8, 23] [µg/mL]	MIC [9, 24] [µg/mL]	MIC [10, 25] [µg/mL]	MIC [11, 26] [µg/mL]	melting point [°C]	MIC [13] [µg/mL]	MIC [14] [µg/mL]	IC50 [15] [µg/mL]	MIC [16] [µg/mL]	also measured
O=C(O)c1cn(C2CC2)c2cc(N3CCNCC3)c(F)cc2c1=O [CIP, ciprofloxacin, reference compound]	0.49 (≈ 1.48 µM)	0.03 (≈ 0.0905 µM)	0.12 (≈ 0.362 µM)	0.49 (≈ 1.48 µM)	0.98 (≈ 2.96 µM)												
N/C(=N\NC(=S)N1CCOCC1)c1cc(-c2ccccc2)ccn1 [MKG-1b]																	MIC toward Mycobacterium strains [6]: 3.1 µg/mL (≈ 9.08 µM); MIC other pathogenic microorganisms [7]: 0.98 to 500 µg/mL
CN[C@H](CC(C)C)C(=O)N[C@H]1C(=O)N[C@@H](CC(N)=O)C(=O)N[C@H]2C(=O)N[C@H]3C(=O)N[C@H](C(=O)N[C@H](C(=O)O)c4cc(O)cc(O)c4-c4cc3ccc4O)[C@H](O)c3ccc(c(Cl)c3)Oc3cc2cc(c3O[C@@H]2O[C@H](CO)[C@@H](O)[C@H](O)[C@H]2O[C@H]2C[C@](C)(N)[C@H](O)[C@H](C)O2)Oc2ccc(cc2Cl)[C@H]1O [VAN, Vancomycin, reference compound]																	MIC ([8]; ATCC13883, read-out: MIC K. pneumoniae ATCC 13883): 0.06 µg/mL (≈ 0.0414 µM); MIC ([1]; ATCC25923, read-out: MIC S. aureus ATCC 25923): 0.98 µg/mL (≈ 0.676 µM); MIC ([2]; ATCC6633, read-out: MIC B. subtilis ATCC 6633): 0.24 µg/mL (≈ 0.166 µM); MIC ([9]; ATCC25922, read-out: MIC E. coli ATCC 25922): 0.004 µg/mL (≈ 0.00276 µM); MIC ([3]; ATCC10876, read-out: MIC B. cereus ATCC 10876): 0.98 µg/mL (≈ 0.676 µM); MIC ([10]; ATCC12453, read-out: MIC P. mirabilis ATCC 12453): 0.03 µg/mL (≈ 0.0207 µM); MIC ([4]; ATCC12228, read-out: MIC S. epidermidis ATCC 12228): 0.98 µg/mL (≈ 0.676 µM); MIC ([11]; ATCC9027, read-out: MIC P. aeruginosa ATCC 9027): 0.49 µg/mL (≈ 0.338 µM); MIC ([5]; ATCC10240, read-out: MIC M. luteus ATCC 10240): 0.12 µg/mL (≈ 0.0828 µM)
NC(=NNC(=S)N1CCCC1)c1cccc(Oc2ccccc2)n1 [Compound 9, 6-Phenoxy-N’-(Pyrrolidine-1-Carbonothioyl)Picolinohydrazonamide]	0.98 (≈ 2.87 µM)	0.49 (≈ 1.44 µM)	3.9 (≈ 11.4 µM)	0.49 (≈ 1.44 µM)	0.49 (≈ 1.44 µM)	1.31 (≈ 3.84 µM)	showed the same while losing cell viability	> 1000	1000 (≈ 2930 µM)	> 1000	1000 (≈ 2930 µM)	170 to 173	1000 (≈ 2930 µM)	1000 (≈ 2930 µM)	0.06 (≈ 0.176 µM)	8 (≈ 23.4 µM)	
NC(=NNC(=S)N1CCOCC1)c1cccc(N2CCCCC2)n1 [Compound 6, N’-(Morpholine-4-Carbonothioyl)-6-(Piperidin-1-Yl)Picolinohydrazonamide]	1.95 (≈ 5.6 µM)	7.8 (≈ 22.4 µM)	7.8 (≈ 22.4 µM)	0.98 (≈ 2.81 µM)	0.98 (≈ 2.81 µM)	> 50	inhibited cell metabolic activity while maintaining cell viability	> 1000	> 1000	> 1000	> 1000	177 to 178	1000 (≈ 2870 µM)	1000 (≈ 2870 µM)	9.49 (≈ 27.2 µM)	8 (≈ 23 µM)	
NC(=NNC(=S)N1CCCC1)c1cccc(N2CCCCC2)n1 [Compound 7, 6-(Piperidin-1-Yl)-N’-(Pyrrolidine-1-Carbonothioyl)Picolinohydrazonamide]	0.49 (≈ 1.47 µM)	1.95 (≈ 5.87 µM)	1.95 (≈ 5.87 µM)	0.49 (≈ 1.47 µM)	1.95 (≈ 5.87 µM)	> 50	no cytotoxicity	> 1000	> 1000	> 1000	> 1000	166 to 168	7.8 (≈ 23.5 µM)	15.6 (≈ 46.9 µM)	> 50	2 (≈ 6.02 µM)	MIC S. aureus ATCC 25923 ([1]; Mueller–Hinton broth): 0.49 µg/mL (≈ 1.47 µM); MIC S. epidermidis ATCC 12228 ([4]; Mueller–Hinton broth): 0.49 µg/mL (≈ 1.47 µM); MIC H37Rv [16]: 2 µg/mL (≈ 6.02 µM); MIC [17]: 0.49 µg/mL (≈ 1.47 µM)
NC(=NNC(=S)N1CCOCC1)c1cccc(Oc2ccccc2)n1 [Compound 8, N’-(Morpholine-4-Carbonothioyl)-6-Phenoxypicolinohydrazonamide]	250 (≈ 699 µM)	> 1000	> 1000	31.3 (≈ 87.6 µM)	125 (≈ 350 µM)	50 (≈ 140 µM)	inhibited cell metabolic activity while maintaining cell viability	> 1000	> 1000	> 1000	> 1000	131 to 134	> 1000	> 1000	0.57 (≈ 1.59 µM)	8 (≈ 22.4 µM)	
OC(Cn1cncn1)(Cn1cncn1)c1ccc(F)cc1F [FCZ, fluconazole, reference compound]													1.95 (≈ 6.37 µM)	0.98 (≈ 3.2 µM)			
NC(=NNC(=S)N1CCCC1)c1cccc(N2CCCC2)n1 [Compound 5, 6-(Pyrrolidin-1-Yl)-N’-(Pyrrolidine-1-Carbonothioyl)Picolinohydrazonamide]	0.49 (≈ 1.54 µM)	0.49 (≈ 1.54 µM)	7.8 (≈ 24.5 µM)	0.49 (≈ 1.54 µM)	0.49 (≈ 1.54 µM)	> 50	no cytotoxicity	> 1000	> 1000	> 1000	> 1000	200 to 201	1000 (≈ 3140 µM)	250 (≈ 785 µM)	> 50	2 (≈ 6.28 µM)	MIC [17]: 0.49 µg/mL (≈ 1.54 µM)
NC(=NNC(=S)N1CCOCC1)c1cccc(N2CCCC2)n1 [Compound 4, N’-(Morpholine-4-Carbonothioyl)-6-(Pyrrolidin-1-Yl)Picolinohydrazonamide]	3.9 (≈ 11.7 µM)	7.8 (≈ 23.3 µM)	7.8 (≈ 23.3 µM)	1.95 (≈ 5.83 µM)	7.8 (≈ 23.3 µM)	> 50	no cytotoxicity	> 1000	> 1000	> 1000	> 1000	180 to 182	> 1000	250 (≈ 747 µM)	> 50	16 (≈ 47.8 µM)	
NNC(=O)c1ccncc1 [INH, isoniazid, reference compound]																0.125 (≈ 0.911 µM)	

— article PMC9822072, “Synthesis and Structure–Activity Relationship of 2,6-Disubstituted Thiosemicarbazone Derivatives of Pyridine as Potential Antituberculosis Agents” (Materials, 2023)
